Where only a bound is given, the exact number is not on record here.

In series [1] the test system is MLL-AF9/FLT3-ITD cells. In kind it is cell-based. The following applies: Homo sapiens, MLL-AF9, Table 10.
The subject of series [2] is MLL-AF9 NRas cells. The series can be described thus: NRAS IC50 (MLL-AF9 NRas cells). The format is cell-based. The following applies: Table 10.
Series [3] concerns FLT3 phosphorylation. The series can be described thus: Immunoblot of phosphorylated FLT3 in MV4;11 cells. The format is cell-based, human. The following applies: 50 nM, 24 hours.
Series [4] deals with IRAK4 phosphorylation. The series can be described thus: Immunoblot of P-IRAK4 in FLT3-ITD AML cells. The format is cell-based, human. To be noted: 50 nM.
For series [5], the system named is THP-1 cells. The series can be described thus: Inhibitory activity against THP-1 cells. To be noted: THP-1 cells (FLT3 wild type AML); data not shown. The format is cell-based.
The target of series [6] is ABL (Homo sapiens (Human), UniProt P00519). The series can be described thus: KiNativ in situ kinase profiling in MV4:11 cell lysates. In kind it is biochemical. Here is the method: (§1) FIG. 18A depicts the labeling site key. FIG. 18B depicts estimated IC50 values. FIG. 18C depicts the full IC50 list for the various kinases. This is an in situ kinase profiling assay; details and methodology are available at www kinativ com. The assay was performed in lysates of MV-4-11 cells which were pretreated for 15 minutes with the inhibitor before the ATP probe was added.
(§2) The KiNativ® assay is an in situ kinase profiling assay; details and methodology are available at www kinativ com. This assay uses the form of the enzyme that is found in actual cells. The assay is run either in cell lysates or in whole cells, with the drug of interest added either to the cell lysates (i.e. cells that have been popped open) or to the outside of the cell in a whole cell assay prior to making the cell lysates. The whole cell assay is optimal because the drug must pass through the cell membrane to get to the cytoplasm where the kinase resides if the kinase is a cytosolic kinase, as is the case for IRAK, or the location of the kinase domain for the FLT3 receptor kinase domain. In the case of FIG. 18, the KiNativ assay was run on cell lysates from the MV4:11 cells. The MV4:11 cells are a FLT3-ITD positive cell line.
(§3) FLT3 is not captured by the KiNativ technology. The KiNativ assay is done in the actual cellular milieu, where the kinase domains are in their more natural states and subject to more native regulatory elements (e.g. other protein domains within the kinase itself that might not be present in the Reaction Biology assay, and which might otherwise obscure access to the active site by our ligand).

Series [7] addresses CDK7 (Homo sapiens (Human), UniProt P50613). The description is as above. In kind it is biochemical. The protocol:
as §1, §2, §3

The target in series [8] is GAK (Homo sapiens (Human), UniProt O14976). Described as above. In kind it is biochemical. Here is the method:
as §1, §2, §3

Series [9] addresses HGK (Homo sapiens (Human), UniProt O95819). Described as above. In kind it is biochemical. The protocol:
as §1, §2, §3

Series [10] deals with IRAK1 (Homo sapiens (Human), UniProt P51617). Described as above. In kind it is biochemical. Here is the method:
as §1, §2, §3

The target in series [11] is LYN (Homo sapiens (Human), UniProt P07948). The description is as above. The format is biochemical. Here is the method:
as §1, §2, §3

Series [12] concerns the target MINK (Homo sapiens (Human), UniProt Q8N4C8). Described as above. In kind it is biochemical. The protocol: as §1, §2, §3
Series [13] addresses PCTAIRE1 (Homo sapiens (Human), UniProt Q00536). Described as above. The format is biochemical. The protocol:
as §1, §2, §3

Series [14] has as its target PCTAIRE2 (Homo sapiens (Human), UniProt Q00537). The description is as above. The format is biochemical. Here is the method:
as §1, §2, §3

For series [15], the target named is PCTAIRE3 (Homo sapiens (Human), UniProt Q07002). The description is as above. In kind it is biochemical. Here is the method:
as §1, §2, §3

Series [16] deals with TNIK (Homo sapiens (Human), UniProt Q9UKE5). Described as above. In kind it is biochemical. Here is the method: as §1, §2, §3
In series [17] the test system is IRAK4 phosphorylation. Put plainly: Immunoblot of phosphorylated IRAK4 in MDSL cells. In kind it is cell-based, human. The following applies: 24 hours. A general note: A western blot detects proteins with antibodies after separation by electrophoresis.
The test system of series [18] is MDSL cells. Put plainly: MDSL cell growth, Cell-titer glow, 72 hours. In kind it is cell-based, human. The protocol:
In a 96-well culture plate (Corning Inc. Costar), 25000 cells were plated in 200 μL media per well. In triplicate, 2 μL of the indicated inhibitor (100× in DMSO) was added to each well and cells treated with 2 μL DMSO alone was used as the control. Treated cells were incubated at 37° C. for 72 hours. In a white 96-well assay plate (Corning Inc. Costar), 100 μL of the treated cells were transferred and brought to room temperature. An equal volume of CellTiter-Glo Reagent at room temperature was added to the cells and the plate was rocked for 2 minutes, followed by 10 minutes of rest. Analysis was performed using GloMax 96 microplate Luminometer (Promega) with GloMax Software.
FIG. 10—Methods: (FIG. 10A) Colony formation of MDSL cells was determined in methylcellulose supplemented with 1 μM or 10 μM of the indicated compounds. Colony formation was determined after 10 days.

The test system of series [19] is THP-1 cells. Put plainly: Synergy of I-24/1481 with venetoclax in THP-1 cells (MTS). The format is cell-based. To be noted: combined with an IC50 concentration of I-24/1481. The protocol: Data were analyzed by Prism v 8. […] FIG. 14C depicts the relevant heat maps; data in the upper heat map indicates the Bliss Scores, and the lower heat map indicates the individual data points for the various dose response curves. Methods: Day 0: Cell Line Plating in growth media recommended by ATCC using Tecan Fluent in 96 well plate (Eppendorf 0030730011); Day 1: Drug Addition. Venetoclax obtained from Selleckchem (S8048); Day 1→4: Incubate with Drug for 72 Hrs at 37 C, 5% CO2; Day 5: Add 20% original volume MTS (Promega G5440) and incubate for 4 Hrs; Add 25% original volume 10% SDS (Invitrogen 24730-020) to lyse cells and stop conversion of MTS to formazan. Read out is colorimetric at 490 nm using a BioTek Synergy Neo Plate Reader.

The subject of series [20] is Kasumi-1 cells. The series can be described thus: Synergy of I-24/1481 with venetoclax in Kasumi-1 cells (MTS). In kind it is cell-based.
The test system of series [21] is MLL-AF9 FLT3-ITD cells.

Turning to `COc1cc2ncc(-c3cccc(NC4CCNC4)n3)n2cc1-c1cn[nH]c1` (stereo not drawn) [Compound I-20, 6-(7-methoxy-6-(1H-pyrazol-4-yl)imidazo[1,2-a]pyridin-3-yl)-N-(pyrrolidin-3-yl)pyridin-2-amine], the IC50 in series [1] turned out to be 40 nM; in series [2], 33200 nM. The FLT3 phosphorylation entry in [3] is “inhibited FLT3 phosphorylation comparably to AC220”. In series [4], the “compensatory phosphorylation of IRAK4” value was “did not result in compensatory phosphorylation of IRAK4”.

Take `COc1cc2ncc(-c3cccc(NC4CCNC4)n3)n2cc1-c1cnn(C)c1` (stereo not drawn) [Compound I-24, 6-(7-methoxy-6-(1-methyl-1H-pyrazol-4-yl)imidazo[1,2-a]pyridin-3-yl)-N-(pyrrolidin-3-yl)pyridin-2-amine]: the “concentration without any inhibitory activity” value in series [5] was over 10 µM. The IC50 in series [6], in [7], in [8], in series [9], in series [10] and in [11] was under 250 nM in each case. Also, the IC50 in [12], in series [13], in [14], in series [15] and in series [16] was under 250 nM each time. In addition, the FLT3 phosphorylation entry in [3] is given as “inhibited FLT3 phosphorylation comparably to AC220”. Further, in series [17], the IRAK4 phosphorylation entry is listed as “effectively inhibited pIRAK4”. The MDSL growth result in [18] was “increased ability to inhibit MDSL growth compared to IRAK-Inh”.

`CC1(C)CCC(CN2CCN(c3ccc(C(=O)NS(=O)(=O)c4ccc(NCC5CCOCC5)c([N+](=O)[O-])c4)c(Oc4cnc5[nH]ccc5c4)c3)CC2)=C(c2ccc(Cl)cc2)C1` [Venetoclax, venetoclax]: the “shift of venetoclax IC50” value in series [19] was 15,000 times. Also, the IC50 in series [20] (Homo sapiens, denominator of the dose ratio, read-out: concentration giving the IC50 response when administered alone) worked out at 3600 nM; in series [21] (read-out: IC50 alone, single agent), 3160 nM. Further, the “fold shift of Venetoclax IC50” value was about 15 fold in series [20] (combined with a minimally active concentration of I-24/1481) and 50 fold in [21] (combined with 0.2 nM 1481).

The values are drawn from patent US11542261B2, “Substituted Imidazo[1,2-a]-pyridines as IRAK 1/4 and FLT3 inhibitors” (CHILDREN'S HOSPITAL MEDICAL CENTER, priority 2016, dated 2023).
